Experimental findings from US20130165489A1, “Small Molecule Modulators of HIV-1 Capsid Stability and Methods Thereof” (The Trustees of the University of Pennsylvania, priority 2010, published 2013) are described below.

Data set [1] deals with HIV-1 G3 (subtype G clinical isolate). Description: Anti-HIV efficacy in human PBMCs, isolate G3. It counts as cell-based. As for the experimental part: (§1) HIV human peripheral blood mononuclear cell (PBMC) assays were performed as described previously (Lanier et al., 2010, Antimicrob. Agents Chemother. 54:2901-09; Ptak et al., 2008, Antimicrob. Agents Chemother. 52:1302-17). Briefly, fresh PBMCs, seronegative for HIV and hepatitis B virus (HBV), were isolated from blood samples of the screened donors (Biological Specialty Corporation, Colmar, Pa.) by using lymphocyte separation medium (LSM; density, 1.078±0.002 g/ml; Cellgro; Mediatech, Inc.) by following the manufacturer's instructions. Cells were stimulated by incubation in 4 μg/mL phytohemagglutinin (PHA; Sigma) for 48 to 72 h. Mitogenic stimulation was maintained by the addition of 20 U/mL recombinant human interleukin-2 (rhIL-2; R&D Systems, Inc.) to the culture medium. PHA-stimulated PBMCs from at least two donors were pooled, diluted in fresh medium, and added to 96-well plates at 5×10^4 cells/well. Cells were infected (final multiplicity of infection [MOI] of ≅0.1) in the presence of 9 different concentrations of test compounds (triplicate wells/concentration) and incubated for 7 days. […] Following removal of supernatant samples, compound cytotoxicity was measured by the addition of 3-(4,5-dimethylthiazol-2-yl)-5-(3-carboxymethoxyphenyl)-2-(4-sulfophenyl)-2H-tetrazolium (MTS; CellTiter 96 reagent; Promega) by following the manufacturer's instructions. […]

For data set [2], the system named is HIV-1 89BZ167 (subtype B clinical isolate). Description: Anti-HIV efficacy in human PBMCs, isolate 89BZ167. In kind it is cell-based. As for the experimental part: as §1
The subject of another data set is H1N1. Nature of the data set: CPE assay, influenza H1N1. It counts as cell-based.
The next data set relates to YFV. Description: microbe, parasite or virus in culture. It counts as cell-based, yellow fever virus.
For another data set, the target named is HIV-1NL4-3 CA (Human immunodeficiency virus type 1 group M subtype B, UniProt P12493). Nature of the data set: Surface plasmon resonance direct binding to HIV-1 CA. As for the experimental part: Interaction analyses were performed on a Biacore 3000 optical biosensor (Biacore, Piscataway Township, NJ) with simultaneous monitoring of two flow cells Immobilization of the CA protein to CM7 sensor chips was performed following the standard amine coupling procedure according to the manufacturer's specifications. Briefly, carboxyl groups on the sensor chip surface were activated by injection of 50 μL of a solution containing 0.2 M EDC (1-ethyl-3-[3-dimethylamino-propyl]carbodiimide hydrochloride) and 0.05 M NHS(N-hydroxysuccinimide) at a flow rate of 5 μL min^−1. Next, the 50 μL of CA protein at a concentration of 6 μM in pH 5.0, 10 mM sodium acetate buffer was passed over the chip surface at 25° C. at a flow rate of 5 μL min^−1 Then, after unreacted protein had been washed out, excess active ester groups on the sensor surface were capped by the injection of 50 μL of 1 M ethanolamine (pH 8.0) at a flow rate of 5 μL min^−1. A reference surface with the nonspecific anti-gp120 antibody 17b (Thali et al., 1993, J. Virol. 67:3978-88) immobilized was generated at the same time under the same conditions and was used as background to correct nonspecific binding and for instrument and buffer artifacts.
Stock solutions of CMPD-E and CMPD-F were prepared by dissolving the compounds in 100% dimethyl sulfoxide (DMSO) to a final concentration of 10 mM. To prepare the sample for analysis, 30 μL of the compound stock solution was added to sample preparation buffer (25 mM Tris-HCl, 150 mM NaCl, pH 7.5) to a final volume of 1 mL and mixed thoroughly. Preparation of analyte in this manner ensured that the concentration of DMSO was matched with that of running buffer with 3% DMSO. Lower concentrations of each compound were then prepared by twofold serial dilutions into running buffer (25 mM Tris-HCl, 150 mM NaCl, 3% DMSO, pH 7.5). These compound dilutions were then injected over the control and CA surfaces at a flow rate of 50 μL min^−1, for a 2-min association phase, followed by a 5-min dissociation phase. […]
On the technique in general: In SPR one partner is held on a chip, and binding of the other changes the refractive index at the surface.

For data set [3], the system named is HIV-1 92UG024 (subtype D clinical isolate). Nature of the data set: Anti-HIV efficacy in human PBMCs, isolate 92UG024. In kind it is cell-based. The procedure:
as §1

A further data set has as its system Chikungunya. Nature of the data set: CPE assay, Chikungunya. It counts as cell-based.
Data set [4] deals with HIV-1 92BR025 (subtype C clinical isolate). Description: Anti-HIV efficacy in human PBMCs, isolate 92BR025. In kind it is cell-based. As for the experimental part:
as §1

Setting [5] is: Human immunodeficiency virus 1, PBMC.

Molecules are shown by their SMILES.

For orientation: IC50 means the concentration needed to halve the response being measured. Low values mean higher potency, high ones lower potency. For orientation: Kd means the free concentration of one partner at which half of the binding sites on the other are occupied at equilibrium, for simple one-to-one binding.

For the compound `O=C(O)c1ccc(-c2nc(-c3ccccc3)c(-c3ccccc3)[nH]2)cc1` [CMPD-E, 4-(4,5-diphenyl-1H-imidazol-2-yl)benzoic acid], the IC50 was 9.03 µM in data set [1] (setting [5]); 92.9 µM in data set [2] (setting [5]); > 100 µM in the data set with H1N1 (Influenza A virus, H1N1, CPE assay); > 100 µM with YFV (Yellow fever virus); 51.8 µM in data set [3] (setting [5]); > 100 µM with Chikungunya (Chikungunya virus). For the same compound, the IC50 in data set [4] (setting [5]) is 51 µM. Further, the “Antiviral index (TC50/IC50)” value is >11.1 in data set [1] (PBMC), >1.08 in data set [2] (PBMC), >1.93 in data set [3] (PBMC) and >1.96 in data set [4] (PBMC). In addition, in the data set on H1N1 (up to 100 μM), the “effect on influenza H1N1 replication” value is “no inhibitory effects”. Further, the “effect on yellow fever virus replication” value in the data set on YFV (up to 100 μM) was “no inhibitory effects”. The Kd at HIV-1NL4-3 CA is 66.3 ± 4.8 µM. For the same compound, the “interaction with sensor-chip immobilized HIV-1 CA” value on HIV-1NL4-3 CA (SPR) is “directly interacted”. Further, the “effect on Chikungunya virus replication” value in the data set on Chikungunya is “no inhibitory effects”.
